Measurements published in patent publication US8293790B2, “Pharmaceutical compositions comprising DGLA and benzoyl peroxide and methods of use thereof” (Dignity Sciences Limited, priority 2011, dated 2012).
≈ marks a conversion by molar mass, not a printed value. Where two headings read alike, the source gives them in different places. Marks after values point to notes of the source that are not given here.

Experiments:
[1] = test system: P. acnes; assay: Agar dilution method: growth of P. acnes and MIC, compounds tested singly; assay type: cell-based, Propionibacterium acnes; set-up: key to Growth Index (+++, ++, +, −) Plate 1 / Growth Index (+++, ++, +, −) Plate 2 / Growth Index (+++, ++, +, −) Plate 3 / Growth Index (+++, ++, +, −) Avg: +++: confluent growth (comparable to control); ++: less confluent growth; +: marked reduction in growth to multiple tiny, single colonies; −: no growth present; MIC: unit: mg/mL; details: for MIC: compound alone
Experimental: (§1) Several compounds including fatty acids such as DGLA, 15-OHEPA, and 15-HETrE were tested to determine their capacity to inhibit the growth of P. acnes. In an exemplary method, an agar dilution method was used to determine the minimum inhibitory concentration (MIC) of each tested compound. Briefly, the agar dilution method involved preparing a series of concentrations of each compound (e.g., nicotinamide, benzoyl peroxide, adapalene, metronidazole, DGLA, 15-OHEPA, and 15-HETrE) in a Reinforced Clostridial Agar (RCA) media that facilitates growth of P. acnes under anaerobic conditions. An inoculum of P. acnes was prepared by incubation of P. acnes for approximately seven days at 35-37° C. to achieve a ≧1.0 OD600 inoculum of P. acnes in RCM broth. A portion of this inoculum was then added to the surface of each plate as a 10 μL spot and incubated at 35-37° C. for 72 hours or more. Growth of P. acnes was then observed and compared to control plates in which no compound has been added, and positive inhibition plates prepared with erythromycin. […] The growth of P. acnes in the presence of nicotinamide, benzoyl peroxide, adapalene, metronidazole, DGLA, 15-OHEPA, and 15-HETrE was determined with varying concentrations of the compound (see, Table 2). Next, the MIC was determined as the concentration at which a marked reduction (+) occurs in the appearance of growth on the test plate (as per Clinical and Laboratory Standards Institute M11-A7).

[2] = test system: P. acnes; assay: Agar dilution method: growth of P. acnes and MIC, fatty acid compounds in combination with other compounds; assay type: cell-based, Propionibacterium acnes; details: for MIC (mg/mL) with 0.05 mg/mL 15-HETrE spike / MIC (mg/mL) with 0.1 mg/mL 15-OHEPA spike: itself an inhibitory concentration; for MIC (mg/mL) with 0.4 mg/mL dGLA spike: dGLA supplied by Sigma, cat# E4504; for MIC (mg/mL) with 1.0 mg/mL dGLA spike: dGLA supplied by Cayman, cat# 90230
Experimental: as §1, with “M11-A7). The compounds tested singly in Example 1 were tested in combination with one another to determine the capacity of the combination to inhibit the growth of P. acnes. In an exemplary method, the MIC was determined for each of the combination as described in Example 1. Briefly, test combinations included DGLA with nicotinamide, benzoyl peroxide, adapalene, or metronidazole; 15-HETrE with nicotinamide, benzoyl peroxide, adapalene, or metronidazole; and 15-OHEPA with nicotinamide, benzoyl peroxide, adapalene, or metronidazole. The tables below show the growth of P. acnes in the presence of 0.4 or 1.0 mg/mL DGLA with varying concentrations of nicotinamide, benzoyl peroxide, adapalene, or metronidazole (Table 3); the growth of P. acnes in the presence of 0.01 or 0.05 mg/mL 15-HETrE with varying concentrations of nicotinamide, benzoyl peroxide, adapalene, or metronidazole (Table 5); and the growth of P. acnes in the presence of 0.5 or 0.1 mg/mL 15-OHEPA with varying concentrations of nicotinamide, benzoyl peroxide, adapalene, or metronidazole (Table 7).” for “M11-A7).”

[3] = Cutibacterium acnes, MIC = concentration with marked reduction (+) of growth, read-out: MIC (mg/mL) as per P-11-0007 or P-11-0008 Addendum A

| SMILES | MIC [1, 3] | Growth Index (+++, ++, +, −) Avg ([1]; compound at 0.2 mg/mL in agar) | Growth Index (+++, ++, +, −) Plate 1 ([1]; compound at 0.2 mg/mL in agar) | Growth Index (+++, ++, +, −) Plate 2 ([1]; compound at 0.2 mg/mL in agar) | Growth Index (+++, ++, +, −) Plate 3 ([1]; compound at 0.2 mg/mL in agar) | Growth Index (+++, ++, +, −) Avg ([1]; compound at 0.4 mg/mL in agar) | Growth Index (+++, ++, +, −) Plate 1 ([1]; compound at 0.4 mg/mL in agar) | Growth Index (+++, ++, +, −) Plate 2 ([1]; compound at 0.4 mg/mL in agar) | Growth Index (+++, ++, +, −) Plate 3 ([1]; compound at 0.4 mg/mL in agar) | Growth Index (+++, ++, +, −) Avg ([1]; compound at 0.6 mg/mL in agar) | Growth Index (+++, ++, +, −) Plate 1 ([1]; compound at 0.6 mg/mL in agar) | Growth Index (+++, ++, +, −) Plate 2 ([1]; compound at 0.6 mg/mL in agar) | Growth Index (+++, ++, +, −) Plate 3 ([1]; compound at 0.6 mg/mL in agar) | Growth Index (+++, ++, +, −) Avg ([1]; compound at 0.8 mg/mL in agar) | Growth Index (+++, ++, +, −) Plate 1 ([1]; compound at 0.8 mg/mL in agar) | Growth Index (+++, ++, +, −) Plate 2 ([1]; compound at 0.8 mg/mL in agar) | Growth Index (+++, ++, +, −) Plate 3 ([1]; compound at 0.8 mg/mL in agar) | MIC (mg/mL) with 0.05 mg/mL 15-HETrE spike [2] | MIC (mg/mL) with 0.1 mg/mL 15-OHEPA spike [2] | growth of P. acnes in combination with 15-OHEPA compared with 15-OHEPA alone [2] | other results |
| --- | --- | --- | --- | --- | --- | --- | --- | --- | --- | --- | --- | --- | --- | --- | --- | --- | --- | --- | --- | --- | --- |
| COc1ccc(-c2ccc3cc(C(=O)O)ccc3c2)cc1C12CC3CC(CC(C3)C1)C2 [Adapalene, 6-[3-(1-adamantyl)-4-methoxyphenyl]-2-naphthoic acid] | > 0.8 mg/mL | +++ | +++ | +++ | +++ | +++ | +++ | +++ | +++ | ++ | ++ | ++ | +++ | ++ | ++ | ++ | ++ | <0.2 mg/mL | <0.2 mg/mL | did not reduce the growth of P. Acnes below that of 15 OHEPA used alone | MIC ([1]; no unit in the sentence): > 0.8; MIC (mg/mL) with 0.05 mg/mL 15-OHEPA spike [2]: >0.8 mg/mL; MIC (mg/mL) with 0.4 mg/mL dGLA spike [2]: >0.6* mg/mL; MIC (mg/mL) with 1.0 mg/mL dGLA spike [2]: >0.6* mg/mL; growth of P. acnes in combination with DGLA compared with DGLA alone [2]: did not reduce the growth of P. Acnes below that of DGLA used alone |
| O=C(OOC(=O)c1ccccc1)c1ccccc1 [Benzoyl Peroxide, benzoyl peroxide] | 0.6 to 0.8 mg/mL (≈ 2.48 to 3.3 mM) | +++ | +++ | +++ | +++ | +++ | +++ | +++ | +++ | ++ | ++ | +++ | ++ | + | + | + | + | <0.2 mg/mL | <0.2 mg/mL |  | growth of P. acnes in combination with 15-HETrE compared with 15-HETrE alone [2]: did not reduce the growth of P. Acnes below that of 15-HETrE used alone |
| Cc1ncc([N+](=O)[O-])n1CCO [Metronidazole] | > 1 mg/mL | +++ | +++ | +++ | +++ | +++ | +++ | +++ | +++ | +++ | +++ | +++ | +++ | +++ | +++ | +++ | +++ | <0.2 mg/mL | <0.2 mg/mL | did not reduce the growth of P. Acnes below that of 15 OHEPA used alone | Growth Index (+++, ++, +, −) Avg ([1]; compound at 1.0 mg/mL in agar): +++; Growth Index (+++, ++, +, −) Plate 1 ([1]; compound at 1.0 mg/mL in agar): +++; Growth Index (+++, ++, +, −) Plate 2 ([1]; compound at 1.0 mg/mL in agar): ++; Growth Index (+++, ++, +, −) Plate 3 ([1]; compound at 1.0 mg/mL in agar): +++; MIC (mg/mL) with 0.01 mg/mL 15-HETrE spike ([2]; 0.01 mg/mL 15-HETrE spike): >1 mg/mL; MIC (mg/mL) with 0.05 mg/mL 15-OHEPA spike [2]: >1 mg/mL; MIC (mg/mL) with 0.4 mg/mL dGLA spike [2]: >1 mg/mL; MIC (mg/mL) with 1.0 mg/mL dGLA spike [2]: >1 mg/mL; growth of P. acnes in combination with 15-HETrE compared with 15-HETrE alone [2]: did not reduce the growth of P. Acnes below that of 15-HETrE used alone; growth of P. acnes in combination with DGLA compared with DGLA alone [2]: did not reduce the growth of P. Acnes below that of DGLA used alone |
| NC(=O)c1cccnc1 [Nicotinamide] | 10 to 15 mg/mL (≈ 81.9 to 123 mM) |  |  |  |  |  |  |  |  |  |  |  |  |  |  |  |  | <1 mg/mL | <1 mg/mL | did not reduce the growth of P. Acnes below that of 15 OHEPA used alone | Growth Index (+++, ++, +, −) Avg ([1]; compound at 1 mg/mL in agar): +++; Growth Index (+++, ++, +, −) Plate 1 ([1]; compound at 1 mg/mL in agar): +++; Growth Index (+++, ++, +, −) Plate 2 ([1]; compound at 1 mg/mL in agar): +++; Growth Index (+++, ++, +, −) Plate 3 ([1]; compound at 1 mg/mL in agar): +++; Growth Index (+++, ++, +, −) Avg ([1]; compound at 5 mg/mL in agar): +++; Growth Index (+++, ++, +, −) Plate 1 ([1]; compound at 5 mg/mL in agar): +++; Growth Index (+++, ++, +, −) Plate 2 ([1]; compound at 5 mg/mL in agar): +++; Growth Index (+++, ++, +, −) Plate 3 ([1]; compound at 5 mg/mL in agar): +++; Growth Index (+++, ++, +, −) Avg ([1]; compound at 10 mg/mL in agar): ++; Growth Index (+++, ++, +, −) Plate 1 ([1]; compound at 10 mg/mL in agar): ++; Growth Index (+++, ++, +, −) Plate 2 ([1]; compound at 10 mg/mL in agar): ++; Growth Index (+++, ++, +, −) Plate 3 ([1]; compound at 10 mg/mL in agar): ++; Growth Index (+++, ++, +, −) Avg ([1]; compound at 15 mg/mL in agar): +; Growth Index (+++, ++, +, −) Plate 1 ([1]; compound at 15 mg/mL in agar): −; Growth Index (+++, ++, +, −) Plate 2 ([1]; compound at 15 mg/mL in agar): +; Growth Index (+++, ++, +, −) Plate 3 ([1]; compound at 15 mg/mL in agar): +; growth of P. acnes in combination with 15-HETrE compared with 15-HETrE alone [2]: did not reduce the growth of P. Acnes below that of 15-HETrE used alone; growth of P. acnes in combination with DGLA compared with DGLA alone [2]: did not reduce the growth of P. Acnes below that of DGLA used alone |
